Measurements as given in PubChem BioAssay (NCI).
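Each compound was tested at five concentrations against cells in 96-well plates for 48 hours. Abbreviation: GI50, concentration required for 50% inhibition of growth. TGI: total growth inhibition.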

Experiments:
Test in all cases: growth of human tumour cells (NCI), 48 h
NCI/ADR-RES ovarian = test system: NCI/ADR-RES ovarian
HOP-92 NSCLC = test system: HOP-92 NSCLC
RPMI-8226 leukemia = test system: RPMI-8226 leukemia
SR leukemia = test system: SR leukemia
NCI-H226 lung = test system: NCI-H226 lung
A549 NSCLC = test system: A549 NSCLC
A498 renal = test system: A498 renal
HL-60(TB) leukemia = test system: HL-60(TB) leukemia
SK-MEL-28 melanoma = test system: SK-MEL-28 melanoma
DU-145 prostate = test system: DU-145 prostate
OVCAR-5 ovarian = test system: OVCAR-5 ovarian
HCC-2998 colon = test system: HCC-2998 colon
M14 melanoma = test system: M14 melanoma
HCT-116 colon = test system: HCT-116 colon
TK-10 renal = test system: TK-10 renal
CCRF-CEM leukemia = test system: CCRF-CEM leukemia
BT-549 breast = test system: BT-549 breast
SW-620 colon = test system: SW-620 colon
HS 578T breast = test system: HS 578T breast
MDA-MB-231 breast = test system: MDA-MB-231 breast
COLO 205 colon = test system: COLO 205 colon
UACC-257 melanoma = test system: UACC-257 melanoma
PC-3 prostate = test system: PC-3 prostate
CAKI-1 renal = test system: CAKI-1 renal
NCI-H522 lung = test system: NCI-H522 lung
SNB-19 CNS = test system: SNB-19 CNS
K-562 leukemia = test system: K-562 leukemia
OVCAR-8 ovarian = test system: OVCAR-8 ovarian
SK-OV-3 ovarian = test system: SK-OV-3 ovarian
SK-MEL-2 melanoma = test system: SK-MEL-2 melanoma
SN12C renal = test system: SN12C renal
OVCAR-3 ovarian = test system: OVCAR-3 ovarian
NCI-H23 lung = test system: NCI-H23 lung
KM12 colon = test system: KM12 colon
ACHN renal = test system: ACHN renal
NCI-H460 lung = test system: NCI-H460 lung
UO-31 renal = test system: UO-31 renal
UACC-62 melanoma = test system: UACC-62 melanoma
HOP-62 NSCLC = test system: HOP-62 NSCLC
SF-539 CNS = test system: SF-539 CNS
LOX IMVI melanoma = test system: LOX IMVI melanoma
MALME-3M melanoma = test system: MALME-3M melanoma
OVCAR-4 ovarian = test system: OVCAR-4 ovarian
U251 CNS = test system: U251 CNS
MCF7 breast = test system: MCF7 breast
SK-MEL-5 melanoma = test system: SK-MEL-5 melanoma
SF-268 CNS = test system: SF-268 CNS
MOLT-4 leukemia = test system: MOLT-4 leukemia
IGROV1 ovarian = test system: IGROV1 ovarian
EKVX NSCLC = test system: EKVX NSCLC
SF-295 CNS = test system: SF-295 CNS
HCT-15 colon = test system: HCT-15 colon
T-47D breast = test system: T-47D breast
RXF 393 renal = test system: RXF 393 renal
MDA-MB-435 = test system: MDA-MB-435
HT29 colon = test system: HT29 colon
786-0 renal = test system: 786-0 renal
SNB-75 CNS = test system: SNB-75 CNS

In the case of `ClCCN(CCCl)c1ccc(CNCCCNCc2ccc(N(CCCl)CCCl)cc2)cc1`, the TGI (NCI/ADR-RES ovarian) is reported as greater than 100 µM, the TGI (HOP-92 NSCLC) is reported as 26.6 µM and the TGI (RPMI-8226 leukemia) is reported as greater than 100 µM. The TGI (SR leukemia) was 1.29 µM, the TGI (NCI-H226 lung) was 30.3 µM and the TGI (A549 NSCLC) was greater than 100 µM. For the same compound, the TGI (A498 renal) was 33.8 µM, the TGI (HL-60(TB) leukemia) was 2.67 µM and the TGI (SK-MEL-28 melanoma) was 3.18 µM. For the same compound, the TGI (DU-145 prostate) was greater than 100 µM, the TGI (OVCAR-5 ovarian) was greater than 100 µM and the TGI (HCC-2998 colon) was 5.2 µM. For the same compound, the TGI (M14 melanoma) was greater than 100 µM, the TGI (HCT-116 colon) was greater than 100 µM and the TGI (TK-10 renal) was 5.25 µM. For the same compound, the TGI (CCRF-CEM leukemia) was greater than 100 µM, the TGI (BT-549 breast) was 9.85 µM and the TGI (SW-620 colon) was greater than 100 µM. The TGI (HS 578T breast) was 7.81 µM, the TGI (MDA-MB-231 breast) was 5.37 µM and the TGI (COLO 205 colon) was 3.29 µM. For the same compound, the TGI (UACC-257 melanoma) was 4.71 µM, the TGI (PC-3 prostate) was 26.5 µM and the TGI (CAKI-1 renal) was 27.2 µM.

Compound `COc1ccc(C(c2cc3c(cc2O)OCO3)N2CCOCC2)cc1OC` (centres undefined) has a TGI (NCI-H522 lung) of 15.1 µM, a TGI (SNB-19 CNS) of 30.4 µM and a TGI (K-562 leukemia) of 69.4 µM. It also gave a TGI (OVCAR-8 ovarian) of 27.2 µM, a TGI (NCI/ADR-RES ovarian) of 20 µM and a TGI (SK-OV-3 ovarian) of 28.7 µM. For the same compound, the TGI (SK-MEL-2 melanoma) was 32.5 µM, the TGI (SN12C renal) was 22.3 µM and the TGI (HOP-92 NSCLC) was 32.8 µM. It also gave a TGI (OVCAR-3 ovarian) of 20.5 µM, a TGI (NCI-H23 lung) of 15.9 µM and a TGI (KM12 colon) of 24.9 µM. The TGI (ACHN renal) was 23.5 µM, the TGI (NCI-H460 lung) was 71.9 µM and the TGI (NCI-H226 lung) was 24.6 µM. It also gave a TGI (A549 NSCLC) of 51.9 µM, a TGI (UO-31 renal) of 25 µM and a TGI (UACC-62 melanoma) of 19.9 µM. The TGI (HOP-62 NSCLC) was 29.1 µM, the TGI (SF-539 CNS) was 28.3 µM and the TGI (LOX IMVI melanoma) was 16.5 µM. The TGI (MALME-3M melanoma) was 25.7 µM, the TGI (HL-60(TB) leukemia) was 79.8 µM and the TGI (SK-MEL-28 melanoma) was 32.9 µM. The TGI (DU-145 prostate) was 24.4 µM, the TGI (OVCAR-4 ovarian) was 29 µM and the TGI (U251 CNS) was 21.4 µM. It also gave a TGI (OVCAR-5 ovarian) of 21.5 µM, a TGI (MCF7 breast) greater than 100 µM and a TGI (M14 melanoma) of 24.9 µM. The TGI (SK-MEL-5 melanoma) was 26.3 µM, the TGI (SF-268 CNS) was 25.5 µM and the TGI (HCT-116 colon) was 22.9 µM. It also gave a TGI (MOLT-4 leukemia) of 80.8 µM, a TGI (TK-10 renal) of 26.1 µM and a TGI (IGROV1 ovarian) of 29.6 µM. For the same compound, the TGI (EKVX NSCLC) was 36.7 µM, the TGI (SF-295 CNS) was 27.2 µM and the TGI (BT-549 breast) was 43.8 µM. It also gave a TGI (SW-620 colon) of 14.4 µM, a TGI (HS 578T breast) of 19.9 µM and a TGI (HCT-15 colon) of 15.8 µM. It also gave a TGI (MDA-MB-231 breast) of 15.8 µM, a TGI (T-47D breast) of 45.8 µM and a TGI (COLO 205 colon) of 28.8 µM. It also gave a TGI (UACC-257 melanoma) of 34.1 µM, a TGI (RXF 393 renal) of 58.2 µM and a TGI (MDA-MB-435) of 23.4 µM. It also gave a TGI (HT29 colon) of 26 µM, a TGI (PC-3 prostate) of 25.7 µM and a TGI (786-0 renal) of 23.1 µM. The TGI (SNB-75 CNS) was 31.8 µM and the TGI (CAKI-1 renal) was 25.4 µM.

`Nc1ccccc1C#Cc1ccccc1C#Cc1cnccn1` was tested, and the GI50 (NCI-H522 lung) was 9.05 µM, the TGI (NCI-H522 lung) was 30.2 µM and the GI50 (SNB-19 CNS) was 20.1 µM. The TGI (SNB-19 CNS) was 40.5 µM, the GI50 (K-562 leukemia) was 26.1 µM and the TGI (K-562 leukemia) was 93.1 µM. The GI50 (OVCAR-8 ovarian) was 48 µM, the TGI (OVCAR-8 ovarian) was greater than 100 µM and the GI50 (NCI/ADR-RES ovarian) was 16.2 µM. For the same compound, the TGI (NCI/ADR-RES ovarian) was 37.4 µM, the GI50 (SK-OV-3 ovarian) was 22.2 µM and the TGI (SK-OV-3 ovarian) was 55 µM. For the same compound, the GI50 (SN12C renal) was 15.2 µM, the TGI (SN12C renal) was 30 µM and the GI50 (OVCAR-3 ovarian) was 9.79 µM. The TGI (OVCAR-3 ovarian) was 25.8 µM, the GI50 (RPMI-8226 leukemia) was 14.8 µM and the TGI (RPMI-8226 leukemia) was 50.2 µM. The GI50 (NCI-H23 lung) was 16.8 µM, the TGI (NCI-H23 lung) was 30.5 µM and the GI50 (KM12 colon) was 11 µM. For the same compound, the TGI (KM12 colon) was 23.9 µM, the GI50 (ACHN renal) was 24.1 µM and the TGI (ACHN renal) was 46.2 µM. It also gave a GI50 (NCI-H460 lung) of 7.87 µM, a TGI (NCI-H460 lung) of 20.5 µM and a GI50 (NCI-H226 lung) of 17.2 µM. The TGI (NCI-H226 lung) was 32.8 µM, the GI50 (A549 NSCLC) was 44.3 µM and the TGI (A549 NSCLC) was greater than 100 µM. For the same compound, the GI50 (UO-31 renal) was 12.1 µM, the TGI (UO-31 renal) was 28.1 µM and the GI50 (UACC-62 melanoma) was 14.6 µM. The TGI (UACC-62 melanoma) was 28 µM, the GI50 (HOP-62 NSCLC) was 21.1 µM and the TGI (HOP-62 NSCLC) was 54.9 µM. For the same compound, the GI50 (SF-539 CNS) was 17.1 µM, the TGI (SF-539 CNS) was 31.6 µM and the GI50 (LOX IMVI melanoma) was 17 µM. The TGI (LOX IMVI melanoma) was 33.7 µM, the GI50 (HL-60(TB) leukemia) was 21.5 µM and the TGI (HL-60(TB) leukemia) was greater than 100 µM. The GI50 (SK-MEL-28 melanoma) was 17.5 µM, the TGI (SK-MEL-28 melanoma) was 32 µM and the GI50 (DU-145 prostate) was 14.5 µM. For the same compound, the TGI (DU-145 prostate) was 28.1 µM, the GI50 (OVCAR-4 ovarian) was 20.6 µM and the TGI (OVCAR-4 ovarian) was 72.3 µM. It also gave a GI50 (U251 CNS) of 17.7 µM, a TGI (U251 CNS) of 32 µM and a GI50 (OVCAR-5 ovarian) of 18.6 µM. For the same compound, the TGI (OVCAR-5 ovarian) was 43.5 µM, the GI50 (M14 melanoma) was 16 µM and the TGI (M14 melanoma) was 29.5 µM. The GI50 (SK-MEL-5 melanoma) was 4.6 µM, the TGI (SK-MEL-5 melanoma) was 18 µM and the GI50 (SF-268 CNS) was 11.7 µM. The TGI (SF-268 CNS) was 25.1 µM, the GI50 (HCT-116 colon) was 17 µM and the TGI (HCT-116 colon) was 36.4 µM. It also gave a GI50 (MOLT-4 leukemia) of 40.8 µM, a TGI (MOLT-4 leukemia) greater than 100 µM and a GI50 (CCRF-CEM leukemia) of 33.2 µM. It also gave a TGI (CCRF-CEM leukemia) greater than 100 µM, a GI50 (EKVX NSCLC) of 14.1 µM and a TGI (EKVX NSCLC) of 27.7 µM. The GI50 (SF-295 CNS) was 11.8 µM, the TGI (SF-295 CNS) was 24 µM and the GI50 (BT-549 breast) was 13.7 µM. It also gave a TGI (BT-549 breast) of 28.7 µM, a GI50 (SW-620 colon) of 17.3 µM and a TGI (SW-620 colon) of 31.7 µM. The GI50 (HCT-15 colon) was 16.6 µM, the TGI (HCT-15 colon) was 34.6 µM and the GI50 (MDA-MB-231 breast) was 14.3 µM. It also gave a TGI (MDA-MB-231 breast) of 29.3 µM, a GI50 (UACC-257 melanoma) of 35.3 µM and a TGI (UACC-257 melanoma) of 79.9 µM. It also gave a GI50 (RXF 393 renal) of 85.4 µM, a TGI (RXF 393 renal) greater than 100 µM and a GI50 (MDA-MB-435) of 3.48 µM. The TGI (MDA-MB-435) was 13.6 µM, the GI50 (HT29 colon) was 24.8 µM and the TGI (HT29 colon) was 53 µM. The GI50 (PC-3 prostate) was 12.7 µM, the TGI (PC-3 prostate) was 27.5 µM and the GI50 (786-0 renal) was 15.3 µM. The TGI (786-0 renal) was 28.7 µM, the GI50 (SNB-75 CNS) was 24.6 µM and the TGI (SNB-75 CNS) was 84.8 µM. It also gave a GI50 (CAKI-1 renal) of 14.3 µM and a TGI (CAKI-1 renal) of 29.2 µM.
